Our source for the EC50 values is US12030876B2, “Aryl hydrocarbon receptor (AHR) agonists and uses thereof” (Ikena Oncology, Inc., priority 2019, dated 2024).

Test [1] deals with T1, AHR (Mus musculus, UniProt P30561).
T1 sequence (P30561 1-848 F348L/P471L): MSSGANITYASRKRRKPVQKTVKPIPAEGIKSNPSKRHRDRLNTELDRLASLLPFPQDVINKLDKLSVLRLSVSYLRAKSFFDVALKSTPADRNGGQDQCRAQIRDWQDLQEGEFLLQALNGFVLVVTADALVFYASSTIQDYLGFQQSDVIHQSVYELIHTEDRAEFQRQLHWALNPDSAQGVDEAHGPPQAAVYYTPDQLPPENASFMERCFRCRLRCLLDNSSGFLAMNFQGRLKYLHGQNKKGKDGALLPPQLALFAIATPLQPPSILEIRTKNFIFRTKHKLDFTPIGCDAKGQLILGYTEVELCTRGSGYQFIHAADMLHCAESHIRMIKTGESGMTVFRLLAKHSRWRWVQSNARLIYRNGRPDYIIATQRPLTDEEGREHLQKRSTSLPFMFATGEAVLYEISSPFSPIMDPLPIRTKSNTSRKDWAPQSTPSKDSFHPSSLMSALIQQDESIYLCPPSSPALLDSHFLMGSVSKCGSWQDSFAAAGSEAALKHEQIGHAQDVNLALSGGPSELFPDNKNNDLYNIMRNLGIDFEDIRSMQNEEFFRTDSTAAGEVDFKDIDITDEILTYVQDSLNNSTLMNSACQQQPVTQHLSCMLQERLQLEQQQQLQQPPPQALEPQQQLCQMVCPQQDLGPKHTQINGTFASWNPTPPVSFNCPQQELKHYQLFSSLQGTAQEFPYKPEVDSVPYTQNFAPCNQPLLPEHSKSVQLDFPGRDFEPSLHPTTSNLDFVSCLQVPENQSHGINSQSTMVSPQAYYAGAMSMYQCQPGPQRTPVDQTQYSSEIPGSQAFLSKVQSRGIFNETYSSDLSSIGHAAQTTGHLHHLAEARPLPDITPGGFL
The experiment in a line: P450 CYP1A1 Luciferase Assay, Hepa1.6 (agonist). The format is cell-based, murine. Conditions: Hepa1.6, Table 2. The protocol:
P450 CYP1A1 Luciferase Assay
AHR binds to Dioxin Responsive Elements (DRE) upstream of genes that it activates. One measure of AHR activity is P450 CYP1A1 protein levels determined by measuring CYP1A1 enzyme activity using a luminogenic CYP1A1 luciferin-based substrate. Luciferase activity will reflect CYP1A1 activity resulting from activation of AHR in the cells.
Murine Hepa1-6 or Hepa-1c1c7 or other murine cell line, human HepG2 or other human cell line are plated in media (96-well, 384-well or other plates) and incubated overnight at 37 C in a CO2 incubator.
(§1) The next day, an AHR agonist compound is added. Cells are incubated for 6, 16 or 24 hours or another time point and then lysed and incubated with a CYP1A1 luciferase-based substrate (e.g. Luciferin-CEE) for 3, 6, or 12 hours of another time point. Determination of luciferase activity as a read-out of CYP1A1 enzyme activity can be measured with a commercial kit such as the Promega P450 Glo CYP1A1 detection reagent or any kit or reagents that provide for measuring luciferase activity. The level of luciferase with only activating ligand (e.g. such as TCDD, kynurenine, ITE (2-(1H-indole-3-ylcarbonyl)-4-thiazolecarboxylic methyl ester), VAF347, BNF (beta-naphthoflavone), ICZ (6-formylindolo(3,2-b) carbazole or other AHR ligands) added is the maximum signal while the luciferase with no ligand is the minimum signal. EC50s can be determined as the concentration which activates half of the maximum luciferase activity.

Test [2] has as its target T2, AHR (Homo sapiens, UniProt P35869).
T2 construct: endogenous in cells; host or cells: HepG2 (human), transfected with a DRE-luciferase reporter only
T2 sequence (P35869 11-848): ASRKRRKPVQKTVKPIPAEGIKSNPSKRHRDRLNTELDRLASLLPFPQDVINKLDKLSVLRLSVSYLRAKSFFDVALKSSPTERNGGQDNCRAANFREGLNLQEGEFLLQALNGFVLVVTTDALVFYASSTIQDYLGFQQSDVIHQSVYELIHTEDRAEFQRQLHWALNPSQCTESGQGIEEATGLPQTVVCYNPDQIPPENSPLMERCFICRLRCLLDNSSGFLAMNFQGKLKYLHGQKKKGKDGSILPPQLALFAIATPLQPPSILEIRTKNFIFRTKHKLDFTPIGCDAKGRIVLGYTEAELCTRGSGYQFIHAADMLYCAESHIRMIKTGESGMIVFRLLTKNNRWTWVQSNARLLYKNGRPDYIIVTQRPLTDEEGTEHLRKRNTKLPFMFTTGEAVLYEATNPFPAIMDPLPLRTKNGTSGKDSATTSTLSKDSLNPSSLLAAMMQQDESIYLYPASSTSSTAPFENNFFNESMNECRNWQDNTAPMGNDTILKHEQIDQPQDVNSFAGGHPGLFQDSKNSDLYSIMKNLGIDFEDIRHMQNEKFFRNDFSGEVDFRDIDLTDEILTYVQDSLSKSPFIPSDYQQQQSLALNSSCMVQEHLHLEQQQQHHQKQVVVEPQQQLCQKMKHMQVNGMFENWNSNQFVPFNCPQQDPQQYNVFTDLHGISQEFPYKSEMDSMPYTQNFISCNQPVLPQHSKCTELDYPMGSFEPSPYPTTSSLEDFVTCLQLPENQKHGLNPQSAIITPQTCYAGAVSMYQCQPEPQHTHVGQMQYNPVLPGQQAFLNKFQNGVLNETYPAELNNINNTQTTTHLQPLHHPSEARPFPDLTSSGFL
Description: DRE-Luciferase Reporter Assay, HepG2 (agonist). Conditions: HepG2, Table 2; read-out: DRE-Luc HepG2 - Agonist: Average EC50. The format is cell-based. The procedure:
DRE-Luciferase Reporter Assay
AHR binds to Dioxin Responsive Elements (DRE) upstream of genes that it activates. One measure of AHR activity is activation of a reporter gene, such as luciferase, downstream of one or multiple DRE elements. Luciferase activity reflects activation and inhibition of AHR in the cells expressing this reporter.
Murine Hepa1-6 or Hepa-1c1c7 or other murine cell line with a DRE-luciferase reporter either stably or transiently transfected are plated in media in plates (96-well, 384-well or other plates) and incubated overnight at 37 C in a CO2 incubator. Likewise, human HepG2 or other human cell line with a DRE-luciferase reporter either stably or transiently transfected are plated in media in plates (96-well, 384-well or other plates) and incubated overnight at 37 C in a CO2 incubator.
as §1, with “lysed” for “lysed and incubated with a CYP1A1 luciferase-based substrate (e.g. Luciferin-CEE)”, “determination” for “3, 6, or 12 hours of another time point. Determination”, “the AHR activation. Luciferase” for “CYP1A1 enzyme activity”, “Luciferase kit” for “P450 Glo CYP1A1 detection reagent”, “provide the luciferin substrate” for “provide”
(In general: In a reporter assay the amount or activity of a reporter protein is the signal.)

pEC50: −log10 of the molar value.

The term pEC50 denotes the negative decadic logarithm of the EC50, by convention in mol/L. With `C[N+](C)(CCO)CCNC(=O)N(c1cccc(C(F)(F)F)c1)c1nc(-c2cccc(Cl)c2)cs1` [I-3], the figures for the pEC50 at AHR [1] and on AHR [2] were 6.00 to 7.00 and greater than 8.00, respectively.
For the compound `FC(F)(F)c1cccc(Nc2nc(-c3ccccn3)cs2)c1` [Compound P-9], the results for the pEC50 at AHR [1] and on AHR [2] were less than 6.00 and greater than 8.00, respectively.
The corresponding values for `C[N+](C)(CCO)CCCC(=O)N(c1cccc(C(F)(F)F)c1)c1nc(-c2cccc(Cl)c2)cs1` [I-42] are less than 6.00 and 6.00 to 7.00.
For the compound `C[N+](C)(C)CCNC(=O)N(c1cccc(C(F)(F)F)c1)c1nc(-c2cccc(Cl)c2)cs1` [I-8], the pEC50 at AHR [1] is less than 6.00; on AHR [2], greater than 8.00.
The like results for `FC(F)(F)c1cccc(Nc2cc(-c3cccc(Cl)c3)cs2)c1` [I-60] were, in that order, less than 6.00 and 7.00 to 8.00.
Consider `FC(F)(F)c1cccc(Nc2nc(-c3ccccc3Cl)cs2)c1` [I-19], for which the pEC50 was less than 6.00 at AHR [1] and greater than 8.00 on AHR [2].
The like results for `C[N+](C)(C)CCNC(=O)N(c1cccc(C(F)(F)F)c1)c1nc(-c2cccc([N+](=O)[O-])c2)cs1` [I-1] were, in that order, 7.00 to 8.00 and greater than 8.00.
The like results for `Clc1cccc(-c2csc(Nc3ccccc3)n2)c1` [Compound P-7] were, in that order, less than 6.00 and greater than 8.00.
Turning to `NC(=O)c1cccc(-c2csc(Nc3cccc(C(F)(F)F)c3)n2)c1` [I-22], the pEC50 at AHR [1] was 6.00 to 7.00; on AHR [2], greater than 8.00.
For `FC(F)(F)c1cccc(Nc2nc(-c3cccc(Cl)c3)cs2)n1` [I-6], the pEC50 is less than 6.00 on AHR [1] and greater than 8.00 on AHR [2].
The corresponding values for `NC(=O)c1cncc(-c2csc(Nc3cccc(C(F)(F)F)c3)n2)c1` [I-17] are 6.00 to 7.00 and greater than 8.00.
The corresponding values for `FC(F)(F)c1cccc(Nc2nc(-c3ccncc3)cs2)c1` [Compound P-6] are less than 6.00 and greater than 8.00.
The like results for `N#Cc1cccc(Nc2nc(-c3cccc(Cl)c3)cs2)c1` [I-25] were, in that order, less than 6.00 and 7.00 to 8.00.
As for `C[N+](C)(C)CCCC(=O)N(c1cccc(C(F)(F)F)c1)c1nc(-c2cccc(Cl)c2)cs1` [I-29], the results for the pEC50 on AHR [1] and at AHR [2] were 6.00 to 7.00 and 7.00 to 8.00, respectively.
The like results for `FC(F)(F)c1cccc(Nc2nc(-c3cccnc3)cs2)c1` [Compound P-8] were, in that order, 6.00 to 7.00 and greater than 8.00.
The like results for `C[N+](C)(CCO)CCNC(=O)N(c1cccc(C(F)(F)F)c1)c1nc(-c2cccc([N+](=O)[O-])c2)cs1` [I-4] were, in that order, 7.00 to 8.00 and greater than 8.00.
The corresponding values for `N#Cc1cccc(-c2csc(Nc3cccc(C(F)(F)F)c3)n2)c1` [I-14] are 7.00 to 8.00 and greater than 8.00.
As to `CN(C)C(=O)c1cccc(-c2csc(Nc3cccc(C(F)(F)F)c3)n2)c1` [I-50], the pEC50 at AHR [1] and on AHR [2] was less than 6.00 throughout.
On to `Cc1ccc(-c2csc(Nc3cccc(C(F)(F)F)c3)n2)cc1[N+](=O)[O-]` [I-11], for which the pEC50 was 6.00 to 7.00 on AHR [1] and greater than 8.00 at AHR [2].
The like results for `CN(CCOCCN(c1cccc(C(F)(F)F)c1)c1nc(-c2cccc(Cl)c2)cs1)CC(=O)O` [I-39] were, in that order, less than 6.00 and 6.00 to 7.00.
The like results for `C[N+]1(CCNC(=O)N(c2cccc(C(F)(F)F)c2)c2nc(-c3cccc(Cl)c3)cs2)CCC(O)CC1` (stereo not drawn) [I-20] were, in that order, less than 6.00 and greater than 8.00.
Take `Clc1cccc(-c2csc(Nc3cccnc3)n2)c1` [Compound P-12]: the pEC50 at AHR [1] was less than 6.00; at AHR [2], 7.00 to 8.00.
The corresponding values for `C[N+](C)(C)CCNC(=O)Nc1cccc(-c2csc(Nc3cccc(C(F)(F)F)c3)n2)c1` [I-47] are less than 6.00 and less than 6.00.
On to `C[N+](C)(C)CCCC(=O)Nc1cccc(-c2csc(Nc3cccc(C(F)(F)F)c3)n2)c1` [I-40], for which the values for the pEC50 at AHR [1] and on AHR [2] were less than 6.00 and 6.00 to 7.00, respectively.
As for `O=[N+]([O-])c1cncc(-c2csc(Nc3cccc(C(F)(F)F)c3)n2)c1` [I-7], the pEC50 on AHR [1] is 6.00 to 7.00; on AHR [2], greater than 8.00.
As to `FC(F)(F)Oc1cccc(-c2csc(Nc3cccc(C(F)(F)F)c3)n2)c1` [I-36], the figures for the pEC50 on AHR [1] and on AHR [2] were less than 6.00 and 6.00 to 7.00, respectively.
The corresponding values for `Clc1cccc(-c2csc(Nc3ccccn3)n2)c1` [Compound P-13] are less than 6.00 and 6.00 to 7.00.
The corresponding values for `FC(F)(F)c1cccc(Nc2nc(-c3ccc4cc[nH]c4c3)cs2)c1` [I-23] are less than 6.00 and greater than 8.00.
`COc1cccc(-c2csc(Nc3cccc(C(F)(F)F)c3)n2)c1` [Compound P-11]: the pEC50 is less than 6.00 at AHR [1] and 7.00 to 8.00 on AHR [2].
The corresponding values for `C[N+](C)(CO)CCNC(=O)N(c1cccc(C(F)(F)F)c1)c1nc(-c2cccc(C#N)c2)cs1` [I-16] are 6.00 to 7.00 and greater than 8.00.
The corresponding values for `O=[N+]([O-])c1cccc(Nc2nc(-c3cccc(Cl)c3)cs2)c1` [I-38] are less than 6.00 and 6.00 to 7.00.
The like results for `C[N+]1(CCNC(=O)N(c2cccc(C(F)(F)F)c2)c2nc(-c3cccc(Cl)c3)cs2)CCCCC1` [I-28] were, in that order, less than 6.00 and 7.00 to 8.00.
Regarding `O=[N+]([O-])c1cccc(-c2csc(Nc3cccc(C(F)(F)F)c3)n2)c1` [Compound P-1], the results for the pEC50 at AHR [1] and on AHR [2] were 7.00 to 8.00 and greater than 8.00, respectively.
